Earlier results in patent US5891469A, “Solid Coprecipitates for enhanced bioavailability of lipophilic substances” (Pharmos Corporation, priority 1997, dated 1999).

How the values were obtained:
[1] = for solubility in aqueous solutions: cannabinoids, depending upon the conditions (Garret and Hunt 1974)
[2] = like other lipophilic drugs

CCCCCc1cc(O)c2c(c1)OC(C)(C)[C@@H]1CC=C(C)C[C@@H]21 [Δ^6 -tetrahydrocannabinol (Δ^6 -THC), Δ^6 -tetrahydrocannabinol]
solubility in aqueous solutions [1]: a few micrograms/ml or less

CCCCCCC(C)(C)c1cc(O)c2c(c1)OC(C)(C)[C@H]1CC=C(CO)C[C@H]21 [Dexanabinol, (+)-(3S, 4S)-7-hydroxy-Δ^6-tetra hydrocannabinol-1,1-dimetylheptyl]
oral bioavailability [2]: poor oral bioavailability | solubility in water ([1]; practically insoluble in water): less than 50 μg/ml

CCCCCc1cc(O)c2c(c1)OC(C)(C)c1ccc(C)cc1-2 [cannabinol]
solubility in aqueous solutions [1]: a few micrograms/ml or less

COC1=C(OC)C(=O)C(C/C=C(\C)CC/C=C(\C)CC/C=C(\C)CC/C=C(\C)CC/C=C(\C)CC/C=C(\C)CC/C=C(\C)CC/C=C(\C)CC/C=C(\C)CCC=C(C)C)=C(C)C1=O [Coenzyme Q10, 2,3-dimethoxy-5-methyl-6-decaprenyl-1,4-benzoquinone]
solubility in water (in words) ([1]; due to long side chain of 10 isoprenoid units): practically insoluble in water

C=C(C)[C@@H]1CCC(C)=C[C@H]1c1c(O)cc(CCCCC)cc1O [cannabidiol]
solubility in aqueous solutions [1]: a few micrograms/ml or less

CCCCCc1cc(O)c2c(c1)OC(C)(C)[C@@H]1CCC(C)=C[C@@H]21 [Δ^1 -tetrahydrocannabinol (Δ^1 -THC), Δ^1 -tetrahydrocannabinol]
solubility in aqueous solutions [1]: a few micrograms/ml or less

CCCCCc1cc(O)c2c(c1)OC(C)(C)[C@@H]1CCC(C)=C[C@@H]21 [tetrahydrocannabinol (THC), tetrahydrocannabinol]
maximal plasma levels (oral dosing of 20 mg THC in a sesame oil formulation (Wall et al. 1983)): around 10 ng/ml | human bioavailability following oral ingestion, mean estimates (oral, depending on the vehicle used): 6 to 12%
